Data: ChEMBL document CHEMBL2203012, “Anti-infective and herbicidal activity of N-substituted 2-aminobenzothiazoles” (Bioorg Med Chem, 2012)

How the values were obtained:
Pichia kudriavzevii [1] = assay: Antifungal activity against Candida krusei E28 assessed as growth inhibition after 24 hrs by CLSI M27-A2 broth microdilution method; format: functional; details: E28, 24 h
[2] = test system: Trichophyton mentagrophytes; assay: Antifungal activity against Trichophyton mentagrophytes 445 assessed as growth inhibition after 120 hrs by CLSI M38-A broth microdilution method; format: functional, organism-based; details: Trichophyton mentagrophytes, 445, 120 h
Candida albicans [3] = assay: Antifungal activity against Candida albicans ATCC 44859 assessed as growth inhibition after 48 hrs by CLSI M27-A2 broth microdilution method; format: functional; details: ATCC 44859, 48 h
[4] = test system: Staphylococcus epidermidis; assay: Antibacterial activity against Staphylococcus epidermidis H 6996/08 assessed as growth inhibition after 48 hrs by broth microdilution test; format: functional; details: H 6996/08, 48 h
Staphylococcus aureus [5] = assay: Antibacterial activity against methicillin-resistant Staphylococcus aureus H 5996/08 assessed as growth inhibition after 48 hrs by broth microdilution test; format: functional; details: H 5996/08, 48 h
[6] = test system: Trichophyton mentagrophytes; assay: Antifungal activity against Trichophyton mentagrophytes 445 assessed as growth inhibition after 72 hrs by CLSI M38-A broth microdilution method; format: functional, organism-based; details: Trichophyton mentagrophytes, 445, 72 h
Mycobacterium kansasii = assay: Antimycobacterial activity against log-phase Mycobacterium kansasii CIT11/06 assessed as growth inhibition after 5 days by alamar blue assay; format: functional; details: CIT11/06, 120 h
[7] = Octanol-water partition coefficient, log P of the compound; format: physicochemical
[8] = test system: Staphylococcus epidermidis; assay: Antibacterial activity against Staphylococcus epidermidis H 6996/08 assessed as growth inhibition after 24 hrs by broth microdilution test; format: functional; details: H 6996/08, 24 h
[9] = (§1) Cytotoxicity against human THP1 cells assessed as cell death after 24 hrs by LDH assay; format: cell-based, THP-1; details: THP-1 cells, read-out: LD50
Staphylococcus aureus [10] = assay: Antibacterial activity against methicillin-resistant Staphylococcus aureus H 5996/08 assessed as growth inhibition after 24 hrs by broth microdilution test; format: functional; details: H 5996/08, 24 h
Trichosporon asahii [11] = assay: Antifungal activity against Trichosporon asahii 1188 assessed as growth inhibition after 24 hrs by CLSI M27-A2 broth microdilution method; format: functional; details: Trichosporon asahii, 1188, 24 h
Trichosporon asahii [12] = assay: Antifungal activity against Trichosporon asahii 1188 assessed as growth inhibition after 48 hrs by CLSI M27-A2 broth microdilution method; format: functional; details: Trichosporon asahii, 1188, 48 h
Pichia kudriavzevii [13] = assay: Antifungal activity against Candida krusei E28 assessed as growth inhibition after 48 hrs by CLSI M27-A2 broth microdilution method; format: functional; details: E28, 48 h
[14] = Lipophilicity, log K of the compound in methanol-water mixture by RP-HPLC; format: physicochemical
Candida albicans [15] = assay: Antifungal activity against Candida albicans ATCC 44859 assessed as growth inhibition after 24 hrs by CLSI M27-A2 broth microdilution method; format: functional; details: ATCC 44859, 24 h
THP-1 = assay: as §1; format: cell-based; details: thp-1, 24 h

Row | SMILES | IC80 (Pichia kudriavzevii [1]) | IC50 [2] | IC80 (Candida albicans [3]) | IC80 [4] | IC90 (Staphylococcus aureus [5]) | IC50 [6] | IC90 (Mycobacterium kansasii) | logP [7] | IC80 [8] | CC50 at 24 h [9] | IC80 (Staphylococcus aureus [10]) | IC80 (Trichosporon asahii [11]) | IC80 (Trichosporon asahii [12]) | IC80 (Pichia kudriavzevii [13]) | log K [14] | IC80 (Candida albicans [15]) | LD50 (THP-1)
1 | CCCCC(=O)Nc1nc2ccccc2s1 | 125 µM | 62.5 µM | 31.2 µM | 62.5 µM | 125 µM | 31.2 µM | 1090 µM | 3.63 | 31.2 µM | > 30 µM | 31.2 µM | 62.5 µM | > 125 µM | > 125 µM | 0.578 | 31.2 µM | 
2 | COC(=O)Nc1nc2ccccc2s1 | > 250 µM | 125 µM | 250 µM | 500 µM | 250 µM | 125 µM | 533 µM | 2.72 | 125 µM | 27.5 µM | 250 µM | 250 µM | 500 µM | > 250 µM | 0.4251 | 125 µM | 
3 | NNC(=O)c1ccncc1 [ISONIAZID] |  |  |  |  |  |  | < 729 µM |  |  |  |  |  |  |  |  |  | 
4 | CC(=O)Nc1nc2ccccc2s1 | 250 µM | 250 µM | 125 µM | > 500 µM | 500 µM | 250 µM | 1300 µM | 2.14 | 250 µM | > 30 µM | 250 µM | 250 µM | > 500 µM | > 500 µM | 0.3661 | 62.5 µM | 
5 | NC(=O)c1cnccn1 [PYRAZINAMIDE] |  |  |  |  |  |  | > 812 µM |  |  |  |  |  |  |  |  |  | 
6 | CC(C)(C)C(=O)Nc1nc2ccccc2s1 | 500 µM | 250 µM | 250 µM | 500 µM | 500 µM | 62.5 µM | 1040 µM | 4.07 | 125 µM |  | 250 µM | > 500 µM | > 500 µM | > 500 µM | 0.5891 | 62.5 µM | ND(Insoluble)
7 | O=C(Nc1nc2ccccc2s1)C1CCCCC1 | > 125 µM | > 125 µM | > 125 µM | > 125 µM | > 125 µM | > 125 µM | 960 µM | 4.11 | > 125 µM | > 30 µM | > 125 µM | 125 µM | > 125 µM | > 125 µM | 0.688 | > 125 µM | 
8 | O=C(Cc1ccccc1)Nc1nc2ccccc2s1 | 62.5 µM | 125 µM | 7.81 µM | 500 µM | 62.2 µM | 15.6 µM | 256 µM | 3.98 | 125 µM | > 30 µM | 31.2 µM | 31.2 µM | 62.2 µM | 125 µM | 0.5413 | 3.9 µM | 
9 | CC1(C)S[C@@H]2[C@H](NC(=O)COc3ccccc3)C(=O)N2[C@H]1C(=O)O [PENICILLIN V] |  |  |  | 250 µM | 500 µM |  |  |  | 62.5 µM |  | 250 µM |  |  |  |  |  | 
10 | c1ccc(CNc2nc3ccccc3s2)cc1 | > 125 µM | > 125 µM | > 125 µM | > 125 µM | > 125 µM | > 125 µM |  | 4.46 | > 125 µM |  | > 125 µM | 125 µM | > 125 µM | > 125 µM | 0.6012 | > 125 µM | 
11 | OC(Cn1cncn1)(Cn1cncn1)c1ccc(F)cc1F [FLUCONAZOLE] | 3.91 µM | 3.91 µM | 0.12 µM |  |  | 1.95 µM |  |  |  |  |  | 0.24 µM | 0.48 µM | 15.6 µM |  | 0.06 µM | 
12 | CNc1nc2ccccc2s1 | 500 µM | 62.5 µM | 250 µM | 125 µM | 500 µM | 62.5 µM | > 1830 µM | 2.73 | 125 µM |  | 500 µM | 125 µM | > 500 µM | > 500 µM | 0.3819 | 125 µM | 
13 | CC(C)CC(=O)Nc1nc2ccccc2s1 | > 125 µM | 62.5 µM | 125 µM | > 125 µM | 125 µM | 62.5 µM | 480 µM | 3.54 | > 125 µM | > 30 µM | 125 µM | 125 µM | > 125 µM | > 125 µM | 0.5598 | 125 µM | 
14 | O=C(Nc1nc2ccccc2s1)c1ccccc1 | 500 µM | 125 µM | 125 µM | > 500 µM | 500 µM | 62.2 µM | 533 µM | 4.04 | > 500 µM | > 30 µM | 125 µM | 250 µM | > 500 µM | > 500 µM | 0.6643 | 125 µM | 
